Like-named read-outs stand apart in the source and are kept apart here. Blank lines part the entries; values can stand above or below the compound they belong to.
What was measured:
eIF2Bα (cteIF2Bα) [1] = assay: ITC; assay type: binding, Thermochaetoides thermophila
eIF2Bα (cteIF2Bα) [2] = assay: ITC; assay type: binding, Thermochaetoides thermophila; remark: listed apart in the source
eIF2Bα (cteIF2Bα) [3] = assay: ITC; assay type: binding, Thermochaetoides thermophila; remark: listed apart in the source
[4] = target: Chaetomium thermophilum eIF2Bα (Chaetomium thermophilum); assay: SEC-MALS
[5] = target: eIF2B(βδ)2 complex (Chaetomium thermophilum, untagged full-length subunits) (Chaetomium thermophilum); assay: SEC-MALS

Kd (eIF2Bα (cteIF2Bα) [1]): 10 µM
Compound: Nc1ncnc2c1ncn2[C@@H]1O[C@H](COP(=O)(O)O)[C@@H](O)[C@H]1O [AMP]

Kd (eIF2Bα (cteIF2Bα) [2]): 65 µM
Compound: Nc1ccn([C@@H]2O[C@H](COP(=O)(O)O)[C@@H](O)[C@H]2O)c(=O)n1 [CMP]

Kd (eIF2Bα (cteIF2Bα) [3]): 2.9 µM
Compound: Nc1nc2c(ncn2[C@@H]2O[C@H](COP(=O)(O)O)[C@@H](O)[C@H]2O)c(=O)[nH]1 [GMP]

stoichiometry N [4]: 2
stoichiometry N [5]: 1
Compound: Chaetomium thermophilum eIF2Bα (natural protein)
